Measurements taken from US8426202B2, “Cell culture medium” (Cellca GmbH, priority 2005, dated 2013).
Values joined by “and” are separate entries in the source; they are usually repeats but may differ in a detail not shown here. Equal values may be shown once.

How the values were obtained:
[1] = test system: CHO cell line that expresses an antibody; assay: Fed-batch experiment with the substances according to the invention (Example 2, Table 2); assay type: cell-based, Chinese hamster; set-up: Viabil.: concentration or dose not given beside the values
From the text: (§1) Feed took place at regular intervals.

[2] = test system: CHO cell line that expresses an antibody; assay: Batch experiment with the substances according to the invention (Example 1); assay type: cell-based, Chinese hamster; settings: batch mode, substance 0.5-1 g/l, basal medium glucose 4.7 g/l, glutamine […]
Experimental: Cells were stored in the gas phase of liquid nitrogen. One to two ampoules were thawed in nutrient medium preheated to 37° C. and transferred to spinner bottles, shaking flasks or T-bottles. In the first few days of cultivation the medium was changed, depending on the clone.
Depending on the clone, cells were split either every second day or every third day or after two and three days alternately into new medium, i.e. a portion of the cell suspension was removed from culture and a smaller portion of the cell suspension was reused as inoculum for the next culture. This inoculum was made up with fresh prewarmed nutrient medium. Cells were incubated at 37° C. in an incubator with a CO2 atmosphere. An alternative for incubating cells was cultivation in an incubation chamber at 37° C., in this way cells were held in culture for several passages. A passage means a cultivation time of two to three days. At various points of time, cell suspension was taken from strain maintenance and used as inoculum for experiments. The experiments were carried out in various cultivation systems, for example in spinner bottles, T-bottles, shaking flasks, culture tubes or in controlled bioreactors.
as §1

O=C(O)CC(O)C(=O)O (stereo not shown) [Malic acid]
Total Cell Density TCD ([1]; day 0, fed-batch): 1.5 E5/ml | Viabil. ([1]; day 0, fed-batch): 91% | Viable Cell Density (VCD) ([1]; day 0, fed-batch): 1.37 E5/ml | Total Cell Density TCD ([1]; day 2, fed-batch): 3.9 E5/ml and 4.2 E5/ml | Viabil. ([1]; day 2, fed-batch): 97% and 98% | Viable Cell Density (VCD) ([1]; day 2, fed-batch): 3.8 E5/ml and 4.1 E5/ml | Total Cell Density TCD ([1]; day 5, fed-batch): 14.1 E5/ml and 12.8 E5/ml | Viabil. ([1]; day 5, fed-batch): 97% and 98% | Viable Cell Density (VCD) ([1]; day 5, fed-batch): 13.7 E5/ml and 12.5 E5/ml | Total Cell Density TCD ([1]; day 8, fed-batch): 49.1 E5/ml and 45.3 E5/ml | Viabil. ([1]; day 8, fed-batch): 91% and 92% | Viable Cell Density (VCD) ([1]; day 8, fed-batch): 44.9 E5/ml and 41.6 E5/ml | Gln ([2]; day 0): 1.53 mM | Glucose ([2]; day 0): 4.69 g/L | Lactate ([2]; day 0): 0 g/L | NH4 ([2]; day 0): 1.22 mM | Specific Glutamin consumption (Gln/VCD) ([2]; day 0): 1.49 | Specific ammonia production (NH4/VCD) ([2]; day 0): 1.18 | Specific glucose consumption (Gluc/VCD) ([2]; day 0): 4.55 | Specific lactate production (Lac/VCD) ([2]; day 0): 0.00 | Total Cell Density TCD ([2]; day 0): 1.07 E5/ml | Viabil. ([2]; day 0): 96% | Viable Cell Density (VCD) ([2]; day 0): 1.03 E5/ml | Gln ([2]; day 3): 0.67 mM | Glucose ([2]; day 3): 3.9 g/L | Lactate ([2]; day 3): 0.85 g/L | NH4 ([2]; day 3): 1.9 mM | Specific Glutamin consumption (Gln/VCD) ([2]; day 3): 0.09 | Specific ammonia production (NH4/VCD) ([2]; day 3): 0.25 | Specific glucose consumption (Gluc/VCD) ([2]; day 3): 0.51 | Specific lactate production (Lac/VCD) ([2]; day 3): 0.11 | Total Cell Density TCD ([2]; day 3): 7.8 E5/ml | Viabil. ([2]; day 3): 97% | Viable Cell Density (VCD) ([2]; day 3): 7.6 E5/ml | Gln ([2]; day 6): 0.28 mM | Glucose ([2]; day 6): 2.65 g/L | Lactate ([2]; day 6): 1.14 g/L | NH4 ([2]; day 6): 2.42 mM | Specific Glutamin consumption (Gln/VCD) ([2]; day 6): 0.01 | Specific ammonia production (NH4/VCD) ([2]; day 6): 0.06 | Specific glucose consumption (Gluc/VCD) ([2]; day 6): 0.06 | Specific lactate production (Lac/VCD) ([2]; day 6): 0.03 | Total Cell Density TCD ([2]; day 6): 43.4 E5/ml | Viabil. ([2]; day 6): 97% | Viable Cell Density (VCD) ([2]; day 6): 42.2 E5/ml | Gln ([2]; day 8): 0.37 mM | Glucose ([2]; day 8): 1.76 g/L | Lactate ([2]; day 8): 0.94 g/L | NH4 ([2]; day 8): 2.4 mM | Specific Glutamin consumption (Gln/VCD) ([2]; day 8): 0.02 | Specific ammonia production (NH4/VCD) ([2]; day 8): 0.10 | Specific glucose consumption (Gluc/VCD) ([2]; day 8): 0.08 | Specific lactate production (Lac/VCD) ([2]; day 8): 0.04 | Total Cell Density TCD ([2]; day 8): 26.1 E5/ml | Viabil. ([2]; day 8): 89% | Viable Cell Density (VCD) ([2]; day 8): 23.2 E5/ml | Gln ([2]; day 11): 0.44 mM | Glucose ([2]; day 11): 0.47 g/L | Lactate ([2]; day 11): 1.2 g/L | NH4 ([2]; day 11): 2.75 mM | Specific Glutamin consumption (Gln/VCD) ([2]; day 11): 0.03 | Specific ammonia production (NH4/VCD) ([2]; day 11): 0.16 | Specific glucose consumption (Gluc/VCD) ([2]; day 11): 0.03 | Specific lactate production (Lac/VCD) ([2]; day 11): 0.07 | Total Cell Density TCD ([2]; day 11): 28.5 E5/ml | Viabil. ([2]; day 11): 61% | Viable Cell Density (VCD) ([2]; day 11): 17.5 E5/ml
